Reference: patent US12290588B2, “Peptide having activity of improving skin condition and use thereof” (CAREGEN CO., LTD., priority 2019, dated 2025)

Experiments:
cleaved PARP-1 = assay: Western blotting of cleaved PARP-1 in UV-irradiated keratinocytes; type: cell-based, human; settings: HaCaT keratinocytes, UV 15 J/cm^2, peptide 10, 50 or 100 μM before and 24 hours after irradiation, western blotting (FIG. 4)
Experimental: (§1) NIH3T3 mouse fibroblasts or HaCaT human keratinocytes were respectively seeded in a 6-sell plate at a density of 3×10^5 cells/well, and cultured for 16 hours. Afterwards, the culture medium was replaced with a serum-free medium, the peptide consisting of the amino acid sequence of SEQ ID NO: 1 was added thereto at a concentration of 10 μM, 50 μM, or 100 μM, and the cells were cultured for 1 hour. Each well containing the cultured cells was washed with phosphate buffered saline (PBS), and the NIH3T3 cells or HaCaT cells were respectively irradiated with ultraviolet light of 6 J/cm^2 or 15 J/cm^2, so as to induce an increase in the expression of apoptosis proteins. Afterwards, the culture medium was replaced with a serum-free medium, the peptide consisting of the amino acid sequence of SEQ ID NO: 1 was added thereto at a concentration of 10 μM, 50 μM, or 100 μM, and the cells were cultured for 24 hours. Cell lysates were obtained by adding a lysis buffer to the cultured cells, and then, western blotting was performed thereon by using cleaved PARP-1 and cleaved caspase-3 antibodies (Santacruz biotechnology, USA). Meanwhile, a non-treated group (Con) was used as a control group. […]

MMP-1 = assay: Western blotting of MMP-1 in UV-irradiated fibroblasts; type: cell-based, mouse; settings: NIH3T3 fibroblasts, UV 6 J/cm^2, peptide 10, 50 or 100 μM before and 24 hours after irradiation, western blotting (FIG. 5)
Experimental: (§2) NIH3T3 mouse fibroblasts were seeded in a 6-well plate at a density of 3×10^5 cells/well, and cultured for 16 hours. Afterwards, the culture medium was replaced with a serum-free medium, the peptide consisting of the amino acid sequence of SEQ ID NO: 1 was added thereto at a concentration of 10 μM, 50 μM, or 100 μM, and the cells were cultured for 1 hour. Each well containing the cultured cells was washed with PBS, and the NIH3T3 cells were irradiated with ultraviolet light of 6 J/cm^2, so as to induce an increase in the expression of MMP-1 and MMP-2. Afterwards, the culture medium was replaced with a serum-free medium, the peptide consisting of the amino acid sequence of SEQ ID NO: 1 was added thereto at a concentration of 10 μM, 50 μM, or 100 μM, and the cells were cultured for 24 hours. Afterwards, cell lysates were obtained by adding a lysis buffer to the cultured cells, and then, western blotting was performed thereon by using MMP-1 antibodies (cell signaling, USA) to measure the expression of MMP-1.

Fibronectin = assay: RT-PCR of Fibronectin expression in UV-irradiated fibroblasts; type: cell-based, mouse; settings: NIH3T3 fibroblasts, UV 6 J/cm^2, peptide 10, 50 or 100 μM before and 6 hours after irradiation, PCR (FIG. 6)
Experimental: (§3) In this example, changes in the cellular activity of fibroblasts were evaluated through the expression of Col1a1, Fibronectin, and Elastin, which are known as components of the dermis. Also, changes in the cellular activity of keratinocytes were evaluated through the expression of SIRT1, which is an anti-aging gene, and AQP3, which is a component of the skin barrier. Based on the evaluation results, the effect of the peptide according to an embodiment on the restoration of the cellular activity of the fibroblasts and keratinocytes was confirmed. In detail, NIH3T3 mouse fibroblasts or HaCaT human keratinocytes were respectively seeded in a 6-sell plate at a density of 3×10^5 cells/well, and cultured for 16 hours. Afterwards, the culture medium was replaced with a serum-free medium, the peptide consisting of the amino acid sequence of SEQ ID NO: 1 was added thereto at a concentration of 10 μM, 50 μM, or 100 μM, and the cells were cultured for 1 hour. Each well containing the cultured cells was washed with PBS, and the NIH3T3 cells or the HaCaT cells were respectively irradiated with ultraviolet light of 6 J/cm^2 or 20 J/cm^2, so as to induce inhibition of the cellular activity. […]

PGC-1α = assay: RT-PCR of PGC-1α expression in fibroblasts; type: cell-based; settings: NIH3T3 mouse fibroblasts, peptide 10, 50 or 100 μM, 24 hours, PCR (FIG. 2)
Experimental: (§4) In this example, an effect the peptide according to an embodiment on the cellular activity of fibroblasts was to be confirmed by measuring the expression levels of PPAR-γ, PPAR-δ, and PGC-1α, which are mitochondrial biogenesis-related genes. In detail, NIH3T3 mouse fibroblasts were seeded in a 6-well plate at a density of 3×10^5 cells/well, and cultured for 16 hours. Afterwards, the culture medium was replaced with a serum-free medium, the peptide consisting of the amino acid sequence of SEQ ID NO: 1 was added thereto at a concentration of 10 μM, 50 μM, or 100 μM, and the cells were cultured for 24 hours. Then, mRNA was extracted from the cultured cells, and reverse-transcribed into cDNA by using a cDNA synthesis kit and PCR pre-mix (Intron, Korea). Afterwards, a polymerase chain reaction (PCR) was performed by using the cDNA and primers of PPAR-γ, PPAR-δ, and PGC-1α. Meanwhile, a control group and positive groups were used in the same manner as in Example 2, and the nucleotide sequences of the primers used herein are shown in Table 2.

IL-1β = assay: RT-PCR of IL-1β expression in UV-irradiated keratinocytes; type: cell-based, human; settings: HaCaT keratinocytes, peptide 10, 50 or 100 μM for 1 hour, UV 15 J/cm^2, PCR (FIG. 8)
Experimental: (§5) HaCaT human keratinocytes were seeded in a 6-well plate at a density of 3×10^5 cells/well, and cultured for 16 hours. Afterwards, the culture medium was replaced with a serum-free medium, the peptide consisting of the amino acid sequence of SEQ ID NO: 1 was added thereto at a concentration of 10 μM, 50 μM, or 100 μM, and the cells were cultured for 1 hour. Each well containing the cultured cells was washed with PBS, and the HaCaT cells were irradiated with ultraviolet light of 15 J/cm^2, so as to induce an increase in the expression of inflammatory cytokine which is an inflammatory factor. Then, mRNA was extracted from the cultured cells, and reverse-transcribed into cDNA by using a cDNA synthesis kit and PCR pre-mix (Intron, Korea). Afterwards, PCR was performed by using the cDNA and primers of TNF-α, COX-2, IL-1β, and IL-6. Meanwhile, a control group and a positive group were used in the same manner as in Example 4, and the nucleotide sequences of the primers used herein are shown in Table 5.

cleaved caspase-3 [1] = assay: Western blotting of cleaved caspase-3 in UV-irradiated keratinocytes; type: cell-based, human; settings: HaCaT keratinocytes, UV 15 J/cm^2, peptide 10, 50 or 100 μM before and 24 hours after irradiation, western blotting (FIG. 4)
Experimental: as §1

TNF-α = assay: RT-PCR of TNF-α expression in UV-irradiated keratinocytes; type: cell-based, human; settings: HaCaT keratinocytes, peptide 10, 50 or 100 μM for 1 hour, UV 15 J/cm^2, PCR (FIG. 8)
Experimental: as §5

Elastin = assay: RT-PCR of Elastin expression in UV-irradiated fibroblasts; type: cell-based, mouse; settings: NIH3T3 fibroblasts, UV 6 J/cm^2, peptide 10, 50 or 100 μM before and 6 hours after irradiation, PCR (FIG. 6)
Experimental: as §3

COX-2 = assay: RT-PCR of COX-2 expression in UV-irradiated keratinocytes; type: cell-based, human; settings: HaCaT keratinocytes, peptide 10, 50 or 100 μM for 1 hour, UV 15 J/cm^2, PCR (FIG. 8)
Experimental: as §5

PPAR-γ = assay: RT-PCR of PPAR-γ expression in fibroblasts; type: cell-based; settings: NIH3T3 mouse fibroblasts, peptide 10, 50 or 100 μM, 24 hours, PCR (FIG. 2)
Experimental: as §4

SIRT1 = assay: RT-PCR of SIRT1 expression in UV-irradiated keratinocytes; type: cell-based, human; settings: HaCaT keratinocytes, UV 20 J/cm^2, peptide 10, 50 or 100 μM before and 6 hours after irradiation, PCR (FIG. 7)
Experimental: as §3

procollagen 1α = assay: Procollagen 1α ELISA in fibroblast medium; type: cell-based; settings: NIH3T3 mouse fibroblasts, peptide 10, 50 or 100 μM, 24 hours, ELISA of medium (FIG. 1)
Experimental: NIH3T3 mouse fibroblasts were seeded in a 6-well plate at a density of 5×10^3 cells/well, and cultured for 16 hours. Afterwards, the culture medium was replaced with a serum-free medium, the peptide consisting of the amino acid sequence of SEQ ID NO: 1 was added thereto at a concentration of 10 μM, 50 μM, or 100 μM, and the cells were cultured for 24 hours. Then, the amount of procollagen 1α in the medium was measured by using a Procollagen 1α ELISA kit (Us biological lifescience, USA). Meanwhile, a non-treated group (Con) was used as a control group, and a group to which 100 nM of bFGF was added and a group to which 5 ng/ml of TGF-β1 was added were used as positive control groups.

MMP-2 = assay: Gelatin zymography of MMP-2 activity in UV-irradiated fibroblasts; type: cell-based, mouse; settings: NIH3T3 fibroblasts, UV 6 J/cm^2, peptide 10, 50 or 100 μM before and 24 hours after irradiation, gelatin zymography (FIG. 5)
Experimental: as §2
Meanwhile, the cell lysates were subjected to gelatin zymography to measure the activity of MMP-2. In detail, after protein electrophoresis (SDS-PAGE) was performed by using 2 mg/ml of gelatin as a substrate. […]

Col1a1 = assay: RT-PCR of Col1a1 expression in UV-irradiated fibroblasts; type: cell-based, mouse; settings: NIH3T3 fibroblasts, UV 6 J/cm^2, peptide 10, 50 or 100 μM before and 6 hours after irradiation, PCR (FIG. 6)
Experimental: as §3

IL-6 = assay: RT-PCR of IL-6 expression in UV-irradiated keratinocytes; type: cell-based, human; settings: HaCaT keratinocytes, peptide 10, 50 or 100 μM for 1 hour, UV 15 J/cm^2, PCR (FIG. 8)
Experimental: as §5

AQP3 = assay: RT-PCR of AQP3 expression in UV-irradiated keratinocytes; type: cell-based, human; settings: HaCaT keratinocytes, UV 20 J/cm^2, peptide 10, 50 or 100 μM before and 6 hours after irradiation, PCR (FIG. 7)
Experimental: as §3

PPAR-δ = assay: RT-PCR of PPAR-δ expression in fibroblasts; type: cell-based; settings: NIH3T3 mouse fibroblasts, peptide 10, 50 or 100 μM, 24 hours, PCR (FIG. 2)
Experimental: as §4

cleaved caspase-3 [2] = assay: Western blotting of cleaved caspase-3 in UV-irradiated fibroblasts; type: cell-based, mouse; settings: NIH3T3 fibroblasts, UV 6 J/cm^2, peptide 10, 50 or 100 μM before and 24 hours after irradiation, western blotting (FIG. 3)
Experimental: as §1

ECEELEEK (Peptide 1) [SEQ ID NO: 1]
restored: expression of SIRT1 reduced by ultraviolet irradiation (SIRT1) | expression of AQP3 reduced by ultraviolet irradiation (AQP3)
restored back to normal levels: expression of Fibronectin inhibited by ultraviolet irradiation (Fibronectin) | expression of Elastin inhibited by ultraviolet irradiation (Elastin) | expression of Col1 a1 inhibited by ultraviolet irradiation (Col1a1)
increased: expression of PGC-1α (PGC-1α) | expression of PPAR-γ (PPAR-γ) | expression of procollagen 1α (procollagen 1α) | expression of PPAR-δ (PPAR-δ)
reduced: expression of MMP-1 increased by ultraviolet irradiation (MMP-1) | expression of IL-1β increased by ultraviolet irradiation (IL-1β) | expression of TNF-α increased by ultraviolet irradiation (TNF-α) | expression of COX-2 increased by ultraviolet irradiation (COX-2) | activity of MMP-2 increased by ultraviolet irradiation (MMP-2) | expression of IL-6 increased by ultraviolet irradiation (IL-6) | expression of cleaved caspase-3 increased by ultraviolet irradiation (cleaved caspase-3 [2])
significantly reduced: expression of cleaved PARP-1 increased by ultraviolet irradiation (cleaved PARP-1) | expression of cleaved caspase-3 increased by ultraviolet irradiation (cleaved caspase-3 [1])
